System: 616215-338-R-J1-PDC complex spheroid viability
Assay: Anticancer human tumor 616215-338-R-J1-PDC patient-derived colon adenocarcinoma cell line growth inhibition [POLQ]
Details: for IC50: curve of first compound; for viability, T/C: stronger effect = lower value
Experimental: Multicellular complex tumor spheroid response to Polymerase (POL) inhibitors (novobiocin, ART-558, RP6685) in combination with a variety of drugs and investigational agents in selected tumor cell lines
The POL inhibitors (novobiocin, ART-558, and RP6685) were evaluated both individually and in combination with standard of care and investigational anticancer small molecules within a complex spheroid model of solid tumors. . Complex spheroids include a stromal component modeled by human endothelial cells (HUVEC) and fibroblasts modeled by human mesenchymal stem cells (MSCs). The concentration ranges selected for each drug and investigational agent were based upon clinically achievable concentrations if the clinical Cmax of the agent was known.
Compounds. The drugs and investigational agents: novobiocin (NSC847541), ART-558 (NSC835418), RP-6685 (NSC848927), peposertib (NSC802822), ceralasertib (NSC780249), elimusertib (NSC800525), camonsertib (NSC841442), AZD-1390 (NSC803789), olaparib (NSC753686), talazoparib (NSC767125), rucaparib (NSC756644), sotorasib (NSC818433), MRTX-1133 (NSC836407), SN-38 (NSC673596), topotecan (NSC609699), epotoside (NSC141540), doxorubicin (NSC123127), gemcitabine (NSC613327), 5-fluorouracil (NSC19893), paclitaxel (NSC125973), vemurafenib (NSC761431), MSA-2 (NSC828583), SN-011 (NSC837082), adavosertib (NSC754352), prexasertib (NSC758257), carboplatin (NSC241240) and oxaliplatin (NSC266046), were obtained from the National Cancer Institute (NCI) Developmental Therapeutics Program Chemical Repository (21). The FDA-approved anticancer drug set is available from the Developmental Therapeutics Program at https://dtp.cancer.gov/organization/dscb/obtaining/. […] The stock solutions were prepared in dimethyl sulfoxide (DMSO, Sigma-Aldrich, St. Louis, MO, cat. D2650), except for the platinum compounds which were prepared in saline (Quality Biological, Gaithersburg, MD, cat. 114-055-101), at 800-fold the tested concentration and stored at -70 degrees C prior to their use. All drugs and investigational agents were tested over a range starting from a high concentration at or near the clinical Cmax and decreasing in half-log increments. If the clinical Cmax for an agent had not been determined, the highest concentration tested was 10 microM, except for SN-38, which was tested at a high concentration of 1 microM.
Cell Culture. All cells were maintained in an incubator at 37 degrees C and 5% CO2 with 95% humidity. The PDC lines were cultured according to standard operating procedures established by the NCI PDMR (https://pdmr.cancer.gov). Table 3 of the manuscript, lists the cell lines along with the number of the three cell types plated to form the mct-spheroids and media for tumor cell growth. After thawing, all PDC lines, except 997537-175-T-J1-PDC and 415267-285-R-J2-PDC, were cultured in Matrigel-coated flasks prepared with a working solution of 1X Ham's F-12 nutrient mix, without supplementation (Thermo Fisher Scientific, cat. 11765054), 100 U/mL penicillin-streptomycin (Thermo Fisher Scientific, cat. 15140122), and 2.5% Matrigel (Corning Inc., Corning, NY, cat. 354248) for the first three passages. The two PDC lines 997537-175-T-J1-PDC and 415267-285-R-J2-PDC were cultured on uncoated flasks. The 857933-349-R-J2-PDC line was cultured in 6C/Colon 1B media containing advanced DMEM/F-12 (Thermo Fisher Scientific, cat. 12634028), 10 mM HEPES (Thermo Fisher Scientific, cat. 15630080), 1X GlutaMAX supplement (Thermo Fisher Scientific, cat. 35050061), 0.1 mg/mL primocin (InvivoGen, San Diego, CA, cat. ant-pm-2), 10% defined fetal bovine serum, heat inactivated (HyClone Laboratories Inc., Logan, UT, cat. SH30070.03HI), 50% L-WRN conditioned media (ATCC, cat. CRL-3276), 1.25 mM N-Acetyl-L-cysteine (Sigma-Aldrich, cat. A9165), 10 mM nicotinamide (Sigma-Aldrich, cat. N0636), 1X B-27 supplement (Thermo Fisher Scientific, cat. 17504044), 1X N-2 supplement (Thermo Fisher Scientific, cat. […]

[1] = second compound 0.0316 µM, first compound 0.0316 µM
[2] = second compound 0.0316 µM, first compound 0.1 µM
[3] = second compound 0.1 µM, first compound 0.0316 µM
[4] = second compound 0.1 µM, first compound 0.1 µM
[5] = second compound 0.316 µM, first compound 0.0316 µM
[6] = second compound 0.316 µM, first compound 0.1 µM
[7] = second compound 1 µM, first compound 0.0316 µM
[8] = second compound 1 µM, first compound 0.1 µM
[9] = second compound 3.16 µM, first compound 0.0316 µM
[10] = second compound 3.16 µM, first compound 0.1 µM
[11] = second compound 10 µM, first compound 0.0316 µM
[12] = second compound 10 µM, first compound 0.1 µM
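Note: spheroids exposed to compounds for one week before readout.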
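Throughout, for viability, T/C: percent viability relative to DMSO vehicle wells taken as 100%.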

Molecule CC(C)n1c(=O)n(C)c2cnc3cc(F)c(-c4ccc(OCCCN5CCCCC5)nc4)cc3c21 + Cc1cccc(N(C)C(=O)C2C(O)CCN2c2nc(C)cc(C(F)(F)F)c2C#N)c1 has an IC50 (second compound 0.0316 µM) greater than 10 µM, an IC50 (second compound 0.1 µM) greater than 10 µM and an IC50 (second compound 0.316 µM) greater than 10 µM. The IC50 (second compound 1 µM) was greater than 10 µM, the IC50 (second compound 3.16 µM) was greater than 10 µM and the IC50 (second compound 10 µM) was greater than 10 µM. The viability, T/C [1] was 95.4%, the viability, T/C [2] was 98.2% and the viability, T/C (second compound 0.0316 µM, first compound 0.316 µM) was 99.1%. For the same molecule, the viability, T/C (second compound 0.0316 µM, first compound 1 µM) was 111%, the viability, T/C (second compound 0.0316 µM, first compound 3.16 µM) was 108% and the viability, T/C (second compound 0.0316 µM, first compound 10 µM) was 114%. The viability, T/C [3] was 109%, the viability, T/C [4] was 113% and the viability, T/C (second compound 0.1 µM, first compound 0.316 µM) was 106%. For the same molecule, the viability, T/C (second compound 0.1 µM, first compound 1 µM) was 102%, the viability, T/C (second compound 0.1 µM, first compound 3.16 µM) was 105% and the viability, T/C (second compound 0.1 µM, first compound 10 µM) was 105%. The viability, T/C [5] was 102%, the viability, T/C [6] was 97.8% and the viability, T/C (second compound 0.316 µM, first compound 0.316 µM) was 94.5%. It also gave a viability, T/C (second compound 0.316 µM, first compound 1 µM) of 107%, a viability, T/C (second compound 0.316 µM, first compound 3.16 µM) of 117% and a viability, T/C (second compound 0.316 µM, first compound 10 µM) of 103%. For the same molecule, the viability, T/C [7] was 101%, the viability, T/C [8] was 99.8% and the viability, T/C (second compound 1 µM, first compound 0.316 µM) was 102%. The viability, T/C (second compound 1 µM, first compound 1 µM) was 117%, the viability, T/C (second compound 1 µM, first compound 3.16 µM) was 114% and the viability, T/C (second compound 1 µM, first compound 10 µM) was 113%. It also gave a viability, T/C [9] of 105%, a viability, T/C [10] of 101% and a viability, T/C (second compound 3.16 µM, first compound 0.316 µM) of 108%. For the same molecule, the viability, T/C (second compound 3.16 µM, first compound 1 µM) was 114%, the viability, T/C (second compound 3.16 µM, first compound 3.16 µM) was 108% and the viability, T/C (second compound 3.16 µM, first compound 10 µM) was 102%. It also gave a viability, T/C [11] of 108%, a viability, T/C [12] of 114% and a viability, T/C (second compound 10 µM, first compound 0.316 µM) of 105%. The viability, T/C (second compound 10 µM, first compound 1 µM) was 109%, the viability, T/C (second compound 10 µM, first compound 3.16 µM) was 108% and the viability, T/C (second compound 10 µM, first compound 10 µM) was 95.4%.

Molecule Cn1ncnc1[C@H]1c2n[nH]c(=O)c3cc(F)cc(c23)N[C@@H]1c1ccc(F)cc1 + Cc1cccc(N(C)C(=O)C2C(O)CCN2c2nc(C)cc(C(F)(F)F)c2C#N)c1 has an IC50 (second compound 0.0316 µM) greater than 0.1 µM, an IC50 (second compound 0.1 µM) greater than 0.1 µM and an IC50 (second compound 0.316 µM) greater than 0.1 µM. The IC50 (second compound 1 µM) was greater than 0.1 µM, the IC50 (second compound 3.16 µM) was greater than 0.1 µM and the IC50 (second compound 10 µM) was greater than 0.1 µM. It also gave a viability, T/C (second compound 0.0316 µM, first compound 0.000316 µM) of 106%, a viability, T/C (second compound 0.0316 µM, first compound 0.001 µM) of 87.5% and a viability, T/C (second compound 0.0316 µM, first compound 0.00316 µM) of 92.1%. It also gave a viability, T/C (second compound 0.0316 µM, first compound 0.01 µM) of 102%, a viability, T/C [1] of 105% and a viability, T/C [2] of 99.3%. For the same molecule, the viability, T/C (second compound 0.1 µM, first compound 0.000316 µM) was 108%, the viability, T/C (second compound 0.1 µM, first compound 0.001 µM) was 99.5% and the viability, T/C (second compound 0.1 µM, first compound 0.00316 µM) was 101%. The viability, T/C (second compound 0.1 µM, first compound 0.01 µM) was 105%, the viability, T/C [3] was 108% and the viability, T/C [4] was 108%. For the same molecule, the viability, T/C (second compound 0.316 µM, first compound 0.000316 µM) was 104%, the viability, T/C (second compound 0.316 µM, first compound 0.001 µM) was 104% and the viability, T/C (second compound 0.316 µM, first compound 0.00316 µM) was 109%. The viability, T/C (second compound 0.316 µM, first compound 0.01 µM) was 105%, the viability, T/C [5] was 110% and the viability, T/C [6] was 97.3%. The viability, T/C (second compound 1 µM, first compound 0.000316 µM) was 101%, the viability, T/C (second compound 1 µM, first compound 0.001 µM) was 101% and the viability, T/C (second compound 1 µM, first compound 0.00316 µM) was 111%. The viability, T/C (second compound 1 µM, first compound 0.01 µM) was 106%, the viability, T/C [7] was 115% and the viability, T/C [8] was 104%. The viability, T/C (second compound 3.16 µM, first compound 0.000316 µM) was 116%, the viability, T/C (second compound 3.16 µM, first compound 0.001 µM) was 106% and the viability, T/C (second compound 3.16 µM, first compound 0.00316 µM) was 101%. For the same molecule, the viability, T/C (second compound 3.16 µM, first compound 0.01 µM) was 109%, the viability, T/C [9] was 104% and the viability, T/C [10] was 97.1%. For the same molecule, the viability, T/C (second compound 10 µM, first compound 0.000316 µM) was 106%, the viability, T/C (second compound 10 µM, first compound 0.001 µM) was 107% and the viability, T/C (second compound 10 µM, first compound 0.00316 µM) was 111%. It also gave a viability, T/C (second compound 10 µM, first compound 0.01 µM) of 102%, a viability, T/C [11] of 99.1% and a viability, T/C [12] of 98.6%.
